Reference: PubChem BioAssay (NCI)
“And” between values parts separate entries of the source, which are not always exact repeats. Identical values can stand only once.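 Briefly, cells in 96-well plates were exposed to five compound concentrations for 48 h, and endpoints were estimated by linear interpolation. Here, GI50 denotes the concentration required for 50% inhibition of growth. At the TGI there is no net growth.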

Columns and labels:
Experiment in all cases: growth of human tumour cells (NCI), 48 h
[1] = tested on: A549 NSCLC
[2] = tested on: NCI-H522 lung
[3] = tested on: CAKI-1 renal
[4] = tested on: HCT-15 colon
[5] = tested on: TK-10 renal
[6] = tested on: SK-OV-3 ovarian
[7] = tested on: HCC-2998 colon
[8] = tested on: SR leukemia
[9] = tested on: LOX IMVI melanoma
[10] = tested on: IGROV1 ovarian

Structure (SMILES): Nc1[nH]c(=O)ncc1CO
- GI50 [1]: > 100 µM
- TGI [1]: > 100 µM
- GI50 [2]: > 100 µM
- TGI [2]: > 100 µM
- GI50 [3]: > 100 µM
- TGI [3]: > 100 µM
- GI50 [4]: > 100 µM
- TGI [4]: > 100 µM
- GI50 [5]: > 100 µM
- TGI [5]: > 100 µM
- GI50 [6]: > 100 µM
- TGI [6]: > 100 µM
- GI50 [7]: > 100 µM
- TGI [7]: > 100 µM
- GI50 [8]: > 100 µM
- TGI [8]: > 100 µM
- GI50 [9]: > 100 µM
- TGI [9]: > 100 µM
- GI50 [10]: > 100 µM
- TGI [10]: > 100 µM

Structure (SMILES): COc1cnc2cc(C(=O)O)c3ccccc3c2c1
- TGI [1]: > 100 µM
- TGI [2]: > 100 µM
- TGI [3]: > 100 µM
- TGI [4]: > 100 µM
- TGI [5]: > 100 µM
- TGI [6]: > 100 µM
- TGI [7]: > 100 µM
- TGI [8]: > 100 µM
- TGI [9]: > 100 µM
- TGI [10]: > 100 µM

Structure (SMILES): CCC1CNC(=O)CC1CC(=O)OC (stereo not drawn)
- TGI [1]: > 100 µM
- TGI [2]: > 100 µM
- TGI [3]: > 100 µM
- TGI [4]: > 100 µM
- TGI [5]: > 100 µM
- TGI [6]: > 100 µM
- TGI [7]: > 100 µM
- TGI [8]: > 100 µM
- TGI [9]: > 100 µM
- TGI [10]: > 100 µM

Structure (SMILES): O=C1c2ccccc2C(=O)c2nc3ccc(Cl)cc3cc21
- TGI [1]: > 100 µM
- TGI [2]: > 100 µM
- TGI [3]: > 100 µM
- TGI [4]: > 100 µM
- TGI [5]: > 100 µM
- TGI [6]: > 100 µM
- TGI [7]: > 100 µM
- TGI [8]: > 100 µM
- TGI [9]: > 100 µM
- TGI [10]: > 100 µM

Structure (SMILES): Oc1ccc(Cl)cc1Cc1cc(Cl)ccc1O
- GI50 [1]: 2.95 µM
- TGI [1]: 11.1 µM
- GI50 [2]: 1.92 µM
- TGI [2]: 5.32 µM
- GI50 [3]: 2.8 µM
- TGI [3]: 9.38 µM
- GI50 [4]: 3.26 µM
- TGI [4]: 12.3 µM
- GI50 [5]: 3.65 µM
- TGI [5]: 11.3 µM
- GI50 [6]: 2.81 µM
- TGI [6]: 10.9 µM
- GI50 [7]: 2.36 µM
- TGI [7]: 5.78 µM
- GI50 [8]: 4.45 µM
- TGI [8]: 35.8 µM
- GI50 [9]: 2.82 µM
- TGI [9]: 8.51 µM
- GI50 [10]: 3.34 µM
- TGI [10]: 12.5 µM

Structure (SMILES): CSc1ccc(C(=O)C(=O)c2ccc(SC)s2)s1
- TGI [1]: > 10 µM
- TGI [2]: > 10 µM
- TGI [3]: > 10 µM
- TGI [4]: > 10 µM
- TGI [5]: > 10 µM
- TGI [6]: > 10 µM
- TGI [7]: > 10 µM
- TGI [8]: > 10 µM
- TGI [9]: > 10 µM
- TGI [10]: > 10 µM

Structure (SMILES): CC(=O)N(Cc1ccccc1)c1ccccc1I(=O)=O
- GI50 [1]: 55.6 µM
- TGI [1]: > 100 µM
- GI50 [2]: 22.4 µM
- TGI [2]: > 100 µM
- GI50 [3]: 42.2 µM
- TGI [3]: > 100 µM
- GI50 [4]: 19.8 µM
- TGI [4]: 40.5 µM
- GI50 [5]: 45.2 µM
- TGI [5]: > 100 µM
- GI50 [6]: 81.1 µM
- TGI [6]: > 100 µM
- GI50 [7]: 99.3 µM
- TGI [7]: > 100 µM
- GI50 [8]: 0.18 µM
- TGI [8]: 4.37 µM
- GI50 [9]: 17.5 µM
- TGI [9]: 35.6 µM
- GI50 [10]: 15.5 µM
- TGI [10]: > 100 µM

Structure (SMILES): O=C1C=CC2(C=C1)C[C@H](NC(=O)C(F)(F)F)C(=O)O2
- TGI [1]: > 100 µM
- TGI [2]: 32.1 µM
- TGI [3]: > 100 µM
- TGI [4]: > 100 µM
- TGI [5]: > 100 µM
- TGI [6]: > 100 µM
- TGI [7]: > 100 µM
- TGI [8]: > 100 µM
- TGI [9]: 51 µM

Structure (SMILES): Cc1cc(Cl)ccc1NS(=O)(=O)c1ccc(-c2cnc(C3CC3)o2)cc1
- GI50 [1]: 0.372 µM
- TGI [1]: 17 µM
- GI50 [2]: 0.251 µM
- TGI [2]: 4.34 µM
- GI50 [3]: 0.127 µM
- TGI [3]: 17.6 µM
- GI50 [4]: 0.0908 µM
- TGI [4]: 12.2 µM
- GI50 [5]: 11.8 µM
- TGI [5]: 31.1 µM
- GI50 [6]: 4.32 µM
- TGI [6]: 26.2 µM
- GI50 [7]: 0.463 µM
- TGI [7]: 12 µM
- GI50 [8]: 0.0967 µM
- TGI [8]: 28.4 µM
- GI50 [9]: 0.622 µM
- TGI [9]: 14.2 µM
- GI50 [10]: 0.365 µM
- TGI [10]: 15.5 µM

Structure (SMILES): Cc1nc(N)nc2ccccc12
- TGI [1]: > 100 µM
- TGI [2]: > 100 µM
- TGI [3]: > 100 µM
- TGI [4]: > 100 µM
- TGI [5]: > 100 µM
- TGI [6]: > 100 µM
- GI50 [7]: > 100 µM
- TGI [7]: > 100 µM
- TGI [8]: > 100 µM
- TGI [9]: > 100 µM
- TGI [10]: > 100 µM

Structure (SMILES): CC1CC[C@]2(C(=O)O)CCC3(C)C(=CCC4[C@@]5(C)CC[C@H](OS(=O)(=O)c6ccccc6)C(C)(C)C5CC[C@]43C)[C@@H]2[C@H]1C (stereo partly drawn)
- TGI [1]: > 100 µM
- TGI [2]: > 100 µM
- TGI [3]: > 100 µM
- TGI [5]: > 100 µM
- TGI [6]: > 100 µM
- TGI [7]: > 100 µM
- TGI [8]: > 100 µM
- TGI [9]: > 100 µM
- TGI [10]: > 100 µM

Structure (SMILES): CC1=NN(C(=O)c2ccccc2O)C(=O)/C1=C/c1cccc([N+](=O)[O-])c1
- TGI [1]: > 100 µM
- TGI [2]: 54.6 µM
- TGI [3]: > 100 µM
- TGI [4]: > 100 µM
- TGI [5]: > 100 µM
- TGI [6]: > 100 µM
- TGI [7]: > 100 µM
- TGI [8]: > 100 µM
- TGI [9]: > 78.5 µM

Structure (SMILES): COc1cc(/C=C(\C#N)C(N)=C(C#N)C#N)cc(O)c1O
- TGI [1]: > 100 µM
- TGI [2]: > 100 µM
- TGI [3]: > 100 µM
- TGI [4]: > 100 µM
- TGI [5]: > 100 µM
- TGI [6]: > 100 µM
- TGI [7]: > 100 µM
- TGI [8]: > 100 µM
- TGI [9]: > 100 µM
- TGI [10]: > 100 µM

Structure (SMILES): Nc1ccc(S(=O)(=O)Nc2cnc3c(Cl)cccc3n2)cc1
- TGI [1]: > 750 µM
- GI50 [2]: 15.2 µM
- TGI [2]: 75 µM and 259 µM
- GI50 [3]: 99.2 µM
- TGI [3]: > 698 µM
- GI50 [4]: 43.5 µM
- TGI [4]: > 562 µM
- GI50 [5]: > 84.7 µM
- TGI [5]: 589 µM
- TGI [6]: 163 µM
- GI50 [7]: 149 µM
- TGI [7]: > 663 µM
- GI50 [8]: 23.1 µM
- TGI [8]: > 750 µM
- GI50 [9]: > 20.2 µM
- TGI [9]: > 736 µM
- GI50 [10]: 1.16 µM
- TGI [10]: > 275 µM

Structure (SMILES): CC1COCC(C)N1C1=C(Cl)C(=O)c2ccccc2C1=O (stereo not drawn)
- GI50 [1]: 17 µM
- TGI [1]: 32.2 µM
- GI50 [2]: 1.59 µM
- TGI [2]: 3.02 µM
- GI50 [3]: 1.56 µM
- TGI [3]: 2.97 µM
- GI50 [4]: 6.5 µM
- TGI [4]: 23.4 µM
- GI50 [5]: 13 µM
- TGI [5]: 26.2 µM
- GI50 [6]: 17.9 µM
- TGI [6]: 31.8 µM
- GI50 [7]: 17.2 µM
- TGI [7]: 31.1 µM
- GI50 [8]: 2.28 µM
- TGI [8]: 5.97 µM
- GI50 [9]: 1.41 µM
- TGI [9]: 2.77 µM

Structure (SMILES): COc1cc2cc3c4c(cc(OC)c(OC)c4c2cc1OC)CCN3C(=O)CCC(=O)NCCCN(C)C
- TGI [1]: > 100 µM
- TGI [2]: 45.8 µM
- TGI [3]: > 100 µM
- TGI [4]: > 100 µM
- TGI [5]: > 100 µM
- TGI [6]: > 100 µM
- TGI [7]: > 100 µM
- TGI [8]: 62 µM
- TGI [9]: 27.3 µM
- TGI [10]: > 100 µM

Structure (SMILES): COc1ccc2nc3ccccc3c(NCCCCN(C)CCCl)c2c1
- TGI [1]: 1.87 µM
- TGI [2]: 0.0763 µM
- TGI [3]: 0.381 µM
- TGI [4]: 0.494 µM
- TGI [5]: > 31.9 µM
- TGI [6]: 0.469 µM
- TGI [7]: 0.467 µM
- TGI [8]: 0.0355 µM
- TGI [9]: 0.539 µM
- TGI [10]: 0.877 µM

Structure (SMILES): O=S(=O)(c1ccc(O)c(C=Nc2ccc(Cl)cc2)c1)c1ccc(O)c(C=Nc2ccc(Cl)cc2)c1
- TGI [1]: > 100 µM
- TGI [2]: > 100 µM
- TGI [3]: > 100 µM
- TGI [5]: > 100 µM
- TGI [6]: > 100 µM
- TGI [7]: > 100 µM
- TGI [8]: > 100 µM
- TGI [9]: > 100 µM
- TGI [10]: > 100 µM
